# Tests used:
# [1] = molecular target: T1, human MCHR1 (Homo sapiens, UniProt Q99705); assay: competitive 125I-MCH binding assay with clone 43 membranes (SPA); conditions: 125I-MCH (100 pM) displacement, Ki from IC50 by Cheng-Prusoff, tested in duplicate
# T1 construct: The full-length cDNA for human MCHR1 was cloned; expressed in transfected cells; host or cells: AV12 cells previously transfected with the promiscuous G protein G(alpha)15; membranes
# Method: (§1) The full-length cDNA for human MCHR1 was cloned from a human adult brain cDNA library (Edge Biosystems, Cat. 38356) by standard polymerase chain reaction (PCR) methodology employing the following primers: sense, 5′-GCCACCATGGACCT GGAAGCCTCGCTGC-3′; anti-sense, 5′-[…]-3′. The PCR reaction was performed in a final volume of 50 μl containing 5 μl of a 10× stock solution of PCR buffer, 1 μl of 10 mM dNTP mixture (200 μM final), 2 μl of 50 mM Mg(SO4) (2 mM final), 0.5 μl of 20 μM solutions of each primer (0.2 μM final), 5 μl of template cDNA containing 0.5 ng DNA, 0.5 μl of Platinum Taq High Fidelity DNA polymerase (Gibco Life Technologies) and 36 μl of H2O. PCR amplification was performed on a Perkin Elmer 9600 thermocycler. After denaturation for 90 sec at 94° C., the amplification sequence consisting of 94° C. for 25 sec, 55° C. for 25 sec and 72° C. for 2 min was repeated 30 times, followed by a final elongation step at 72° C. for 10 min. The desired PCR product (1.1 Kb) was confirmed by agarose gel electrophoresis and the band was extracted from the gel by Geneclean (Bio101) following the manufacturer's instructions. Following extraction, the cDNA fragment was cloned into pCR2.1-TOPO plasmid (Invitrogen) to confirm the identity and sequence.
# (§2) In order to generate cell lines stably expressing MCHR1, the insert was then subcloned into the Xba I and Not I sites of pcDNA(+)-3.1-neomycin (Invitrogen). After purification by Qiagen Maxi-prep kit (QIAGEN, Inc.), the plasmid was transfected by Fugene 6 (Roche Applied Science) into AV12 cells that had been previously transfected with the promiscuous G protein G[…]15. The transfected cells were selected by G418 (800 μg/ml) for. 10-14 days and single colonies were isolated from culture plates. The G418-resistant colonies were further selected for MCHR1 expression by measuring MCH-stimulated Ca^2+ transients with a fluorometric imaging plate reader (FLIPR, Molecular Devices).
# Both the ^125I-MCH binding and functional GTPγ^35S binding assays employed membranes isolated from a clone designated as clone 43. Typically, cells from 20 confluent T225 flasks were processed by washing the monolayers in cold phosphate-buffered saline (PBS), scraping the cells into same and re-suspending the cell pellet in 35 ml of 250 mM Sucrose, 50 mM HEPES, pH 7.5, 1 mM MgCl2, 24 μg/ml DNase I, and protease inhibitors (1 Complete® tablet, per 50 ml of buffer prepared, Roche Diagnostics). After incubation on ice for 5 min, cells were disrupted with 20-25 strokes of a Teflon/Glass homogenizer attached to an overhead motorized stirrer, and the homogenate was centrifuged at 40,000 rpm in Beckman Type 70.1 Ti rotor. The pellets were re-suspended in 250 mM Sucrose, 50 mM HEPES, pH 7.5, 1.5 mM CaCl2, 1 mM MgSO4 and protease inhibitors by Teflon/Glass homogenization to achieve a protein concentration of ˜3-5 mg/ml (Pierce BCA assay with Bovine serum albumin as standard). Aliquots were stored at −70° C.
# Binding of compounds to MCHR1 was assessed in a competitive binding assay employing ^125I-MCH, compound and clone 43 membranes. Briefly, assays are carried out in 96-well Costar 3632 white opaque plates in a total volume of 200 μl containing 25 mM HEPES, pH 7.5, 10 mM CaCl2, 2 mg/ml bovine serum albumin, 0.5% dimethyl sulfoxide (DMSO), 4 μg of clone 43 membranes, 100 pM ^125I-MCH (NEN), 1.0 mg of wheat germ agglutinin scintillation proximity assay beads (WGA-SPA beads, Amersham) and a graded dose of test compound. Non-specific binding is assessed in the presence of 1 μM unlabeled MCH. Bound ^125I-MCH is determined by placing sealed plates in a Microbeta Trilux (Wallac) and counting after a 5 hr delay.
# IC50 values (defined as the concentration of test compound required to reduce specific binding of ^125I-MCH by 50%) are determined by fitting the concentration-response data to a 4-parameter model (max response, min response, Hill coefficient, IC50) using Excel. […]
# [2] = molecular target: T1, human MCHR1; assay: inhibition of MCH-stimulated GTPγ35S binding to clone 43 membranes (functional antagonism); format: biochemical; conditions: 40 nM MCH-stimulated GTPγ35S binding, Kb from IC50 by modified Cheng-Prusoff (Leff and Dougal), tested in duplicate
# Method: as §1
# as §2, with “Devices). […]” for “Devices).”
# Functional antagonism of MCH activity is assessed by measuring the ability of test compound to inhibit MCH-stimulated binding of GTPγ^35S to clone 43 membranes. […]
# T1 sequence (Q99705 whole entry): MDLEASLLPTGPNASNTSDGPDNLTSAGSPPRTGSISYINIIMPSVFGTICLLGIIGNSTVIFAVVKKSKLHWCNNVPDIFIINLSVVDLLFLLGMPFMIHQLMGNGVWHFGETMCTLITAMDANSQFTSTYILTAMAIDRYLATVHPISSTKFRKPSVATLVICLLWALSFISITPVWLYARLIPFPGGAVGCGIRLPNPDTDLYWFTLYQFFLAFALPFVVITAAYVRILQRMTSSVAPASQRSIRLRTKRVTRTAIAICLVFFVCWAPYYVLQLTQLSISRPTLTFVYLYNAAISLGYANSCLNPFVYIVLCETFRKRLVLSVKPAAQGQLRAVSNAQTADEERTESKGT
SMILES,Ki [1] [nM],Kb [2] [nM],melting point [°C]
O=C1c2ccc(-c3nnc(CSCCOc4ccccc4)o3)cc2CN1CCN1CCCCC1,1070,–,–
O=C1c2cc(-c3nnc(CSCCOc4ccccc4)o3)ccc2CN1CCN1CCCCC1,2000,–,–
CN(C)Cc1cc2cc(-c3nnc(CSCCOc4ccccc4)o3)ccc2[nH]1,190,–,–
c1ccc(OCCSCc2nnc(-c3ccc4cc(CN5CCCC5)ccc4c3)o2)cc1,7.3,7,–
CN(C)Cc1c[nH]c2cc(-c3nnc(CSCCOc4ccccc4)o3)ccc12,682,–,–
CN(C)Cc1cn(C)c2ccc(-c3nnc(CSCCOc4ccccc4)o3)cc12,11100,–,–
"CN(C)Cc1cc2cc(-c3nnc(CSCCOc4ccccc4)o3)ccc2[nH]1.O=C(O)C(=O)O [Example 3, dimethyl-{5-[5-(2-phenoxy-ethylsulfanylmethyl)-[1,3,4]oxadiazol-2-yl]-1H-indol-2-ylmethyl}-amine oxalate]",–,–,147 to 150
"CN(C)Cc1cc2ccc(-c3nnc(CSCCOc4ccccc4)o3)cc2[nH]1 [Example 4, dimethyl-{6-[5-(2-phenoxy-ethylsulfanylmethyl)-[1,3,4]oxadiazol-2-yl]-1H-indol-2-ylmethyl}-amine]",–,–,128 to 130
"CN(C)Cc1cc2ccc(-c3nnc(CSCCOc4ccccc4)o3)cc2n1C.O=C(O)C(=O)O [Example 5, dimethyl-{1-methyl-6-[5-(2-phenoxy-ethylsulfanylmethyl)-[1,3,4]oxadiazol-2-yl]-1H-indol-2-ylmethyl}-amine oxalate]",–,–,125.5 to 129
"CN(C)Cc1c[nH]c2ccc(-c3nnc(CSCCOc4ccccc4)o3)cc12.O=C(O)C(=O)O [Example 6, dimethyl-{5-[5-(2-phenoxy-ethylsulfanylmethyl)-[1,3,4]oxadiazol-2-yl]-1H-indol-3-ylmethyl}-amine oxalate]",–,–,159 to 163
"CN(C)Cc1c[nH]c2cc(-c3nnc(CSCCOc4ccccc4)o3)ccc12.O=C(O)/C=C\C(=O)O [Example 7, Dimethyl-{6-[5-(2-phenoxy-ethylsulfanylmethyl)-[1,3,4]oxadiazol-2-yl]-1H-indol-3-ylmethyl}-amine maleate]",–,–,127 to 129
"CN(C)Cc1cn(C)c2ccc(-c3nnc(CSCCOc4ccccc4)o3)cc12.O=C(O)C(=O)O [Example 8, dimethyl-{1-methyl-5-[5-(2-phenoxy-ethylsulfanylmethyl) -[1,3,4]oxadiazol-2-yl]-1H-indol-3-ylmethyl}-amine oxalate]",–,–,151 to 154
"CN(C)Cc1ccc2cc(-c3nnc(CSCCOc4ccccc4)o3)ccc2c1 [Example 11, Dimethyl-{6-[5-(2-phenoxy-ethylsulfanylmethyl)-[1,3,4]oxadiazol-2-yl]-naphthalen-2-ylmethyl}-amine]",–,–,95 to 96
"O=C(O)/C=C\C(=O)O.c1ccc(OCCSCc2nnc(-c3ccc4cc(CN5CCCC5)ccc4c3)o2)cc1 [Example 12, 2-(2-Phenoxy-ethylsulfanylmethyl)-5-(6-pyrrolidin-1-ylmethyl-naphthalen-2-yl)-[1,3,4]oxadiazole maleate]",–,–,133 to 135
"c1ccc(OCCSCc2nnc(-c3ccc4cc(CN5CCCCC5)ccc4c3)o2)cc1 [Example 13, 1 -{6-[5-(2-phenoxy-ethylsulfanylmethyl)-[1,3,4]oxadiazol-2-yl]-naphthalen-2-ylmethyl}-piperidine]",–,–,93 to 94
CN(C)Cc1cc2ccc(-c3nnc(CSCCOc4ccccc4)o3)cc2o1 [drawing 39],372,–,–
CN(C)Cc1cc2ccc(-c3nnc(CSCCOc4ccccc4)o3)cc2o1 [drawing 41],383,–,–
CN(C)Cc1ccc2cc(-c3nnc(CSCCOc4ccccc4)o3)ccc2c1 [drawing 44],8.2,11.8,–
c1ccc(OCCSCc2nnc(-c3ccc4cc(CN5CCCCC5)ccc4c3)o2)cc1 [drawing 47],17.6,58.4,–
CN(C)Cc1cc2cc(-c3nnc(CSCCOc4ccccc4)o3)ccc2o1 [drawing 50],235,–,–
CN(C)Cc1cc2cc(-c3nnc(CSCCOc4ccccc4)o3)ccc2o1 [drawing 52],153,–,–
CN(C)Cc1cc2ccc(-c3nnc(CSCCOc4ccccc4)o3)cc2[nH]1 [drawing 54],34.6,–,–
